Measured values from patent publication US10113147B2, “Method for producing megakaryocytes, platelets and/or thrombopoietin using mesenchymal cells” (AdipoSeeds, Inc., priority 2013, dated 2018).
Counter-ions that a name gives are not always drawn.

Tests used:
Format in all cases: cell-based
mouse preadipocytes [1] = assay: Identification of megakaryocyte/platelet production inducing substance (CD41 flow cytometry); details: reagent added alone to basic medium, Day 7
Experimental: In order to identify an important factor(s) for inducing production of megakaryocytes/platelets from preadipocytes, mediums were prepared by separately adding individual reagents contained in a differentiation-inducing medium (MKLI medium) for megakaryocytes/platelets, to a basic medium (IMDM medium containing 2 mM L-glutamine, a 100 U/mL penicillin-streptomycin solution, and nucleotides (ATP, UTP, GTP, and CTP, 20 μM for each)). More specifically, five types of mediums were prepared by adding 0.5% bovine serum albumin, 10 μg/mL insulin, 4 μg/mL LDL cholesterol, 200 μg/mL iron-saturated transferrin (iron-bound transferrin) and 50 μM 2-β-mercaptoethanol, respectively, to the basic mediums (FIG. 5). Mouse preadipocytes maintenance-cultured in accordance with the method of Example 1 were cultured in the above five types of mediums and in the basic medium, i.e., in total 6 types of medium (FIG. 5) for 7 days.
The mouse preadipocytes on Day 7 after culture in each of the mediums were directly labeled with a FITC-labeled anti-CD41 antibody and analyzed by flow cytometry.

preadipocytes [2] = assay: Effect of iron chelator and apo-transferrin on ratio of CD41-positive cells; details: Day 4
Experimental: To investigate effect of an iron ion on induction of preadipocytes into megakaryocytes/platelets, analysis using the preadipocytes was made. Specifically, a medium (basic medium+iron-bound transferrin+Desferal (deferoxamine mesylate)) was prepared by adding an iron chelator, Desferal (deferoxamine mesylate, manufactured by Novartis Pharma K. K.) to a basic medium containing 200 μg/mL iron-bound transferrin, or a medium (basic medium+apo-transferrin) was prepared by adding a non-iron-bound transferrin, apo-transferrin (manufactured by Athens Research and Technology) to a basic medium alone. Cells were cultured in these mediums and the ratio (%) of CD41 (specific marker of megakaryocytes and platelets)—positive cells in the cells on Day 4 after the culture was determined. The results of Desferal (deferoxamine mesylate) addition are shown in Table 3; whereas the results of apo-transferrin addition are shown in Table 4.

mouse preadipocytes [3] = assay: CD41-positive ratio of sorted adipose tissue-derived cell fractions cultured with iron-bound transferrin; details: CD31 negative, 200 μg/mL, Day 5
Experimental: A subcutaneous adipose tissue was isolated from a mouse. To this, collagenase was added. The mixture was incubated at 37° C. for one hour and centrifuged to obtain a cell layer as a lower layer. Thereafter, these cells were labeled with a fluorescence-labeled anti-CD45 antibody (manufactured by BD Bioscience), a fluorescence-labeled anti-Ter119 antibody (manufactured by BD Bioscience) and 7AAD (manufactured by BD Bioscience), and fluorescence was measured by flow cytometry. Of the cells shown in FIG. 7, upper right panel, cells of CD45 negative, Ter119 negative and 7-AAD negative (cells under the line at the center of the upper right panel of FIG. 7) were separately taken. CD45 is known as a marker of hematopoietic cells (leucocytes, lymphocytes, eosinophils, monocytes, basophils, and neutrophils) excluding erythrocytes and platelets. Ter119 is known as a marker of mature erythrocytes and erythroid progenitor cells. 7-AAD (7-amino-actinomycin D) is known as a marker of dead cells.
Subsequently, CD45 negative, Ter119 negative and 7-AAD negative cells separately taken were labeled with a fluorescence-labeled anti-CD31 antibody (manufactured by BD Bioscience) and fluorescent was measured by flow cytometry. Of the cells shown in the lower left panel of FIG. 7, CD31 negative cells (cells under the line of the center of the lower left panel of FIG. 7) were separately taken. […]
Subsequently, the cells (CD45 negative, Ter119 negative, 7-AAD negative and CD31 negative) previously separately taken were labeled with a fluorescence-labeled anti-c-MPL antibody (manufactured by BD Bioscience) and a fluorescence-labeled anti-CD71 antibody (manufactured by BD Bioscience), and fluorescence was measured by flow cytometry. […]
The cells shown in individual portions of the left panel of FIG. 8 were separately cultured in a medium prepared by adding 200 μg/mL iron-bound transferrin to the basic medium described in Example 3. The ratio (%) of CD41 (specific marker of megakaryocytes/platelets)-positive cells in the cells on Day 5 after initiation of culture was determined. […]

human preadipocytes [4] = assay: Ratio of CD41-positive cells at different iron-bound transferrin concentrations; details: Day 4
Experimental: Human preadipocytes maintenance-cultured in accordance with the method of Example 1 were prepared and cultured in mediums prepared by adding iron-bound transferrin samples different in concentration to the basic medium described in Example 3. The ratio (%) of CD41 (specific marker of megakaryocytes and platelets)-positive cells in the cells on Day 4 after initiation of the culture was determined.

human preadipocytes [5] = assay: TPO production at different iron-bound transferrin concentrations; details: for TPO: Day 4
[6] = system: mouse hematopoietic stem cells; assay: Differentiation of hematopoietic stem cells into megakaryocytes/platelets
Description: Activity of TPO secreted during the process of producing megakaryocytes/platelets from preadipocytes was investigated based on the presence or absence of differentiation-inducing property of mouse hematopoietic stem cells into megakaryocytes/platelets when TPO was used. Whether platelets are produced or not was checked based on the shape analyzed by an optical microscope and flow-cytometric expression analysis of platelet specific marker CD41.

[7] = system: transferrin receptor CD71; assay: CD71 knock-down by siRNA: CD71 % in human preadipocytes
Description: (§1) In consideration of the results, whether a transferrin receptor CD71 knock-down preadipocytes have differentiation potency to megakaryocytes and platelets or not was checked. To human preadipocytes, a gene of siRNA of CD71 (siRNA-CD71) (the sequence of a sense strand is represented by SEQ. ID No. 1, whereas the sequence of the antisense strand is represented by SEQ. ID No. 2) or a scrambled oligo (negative control) (the sequence of a sense strand is represented by SEQ. ID No. 3, whereas the sequence of the antisense strand is represented by SEQ. ID No. 4) was introduced. Forty eight hours later, the human preadipocytes were cultured in a medium prepared by adding transferrin alone to the basic medium, for four days.
(§2) Human preadipocytes on Day 4 after culture were directly labeled with a FITC-labeled anti-CD41 antibody and analyzed by flow cytometry. As a result, production of megakaryocytes and platelets was not observed in CD71 knock-down human preadipocytes (Table 1).

human preadipocytes [8] = assay: CD71 knock-down by siRNA: CD41-positive cells by flow cytometry
Description: as §1, §2

preadipocytes [9] = assay: CD71 knock-down by siRNA: TPO in culture supernatant by ELISA
Experimental: A medium was prepared by removing bovine serum albumin, insulin, LDL cholesterol and 2-β-mercaptoethanol from MKLI medium. The medium is the same as a medium (“basic medium+transferrin”), which is prepared by adding 200 μg/mL iron-bound transferrin to a medium (of MKLI medium) corresponding to a basic medium (a medium prepared by adding, to Iscove's Modified Dulbecco's Medium, IMDM), 2 mM L-glutamine, a 100 U/mL penicillin-streptomycin solution, and nucleotides (ATP, UTP, GTP, and CTP, 20 μM for each) and corresponding to a medium prepared by adding 200 μg/mL iron-bound transferrin to “the particularly preferable basic medium in the present invention” described in the detailed description of the present application. To preadipocytes, a gene of siRNA of transferrin receptor CD71 (siRNA-CD71) (the sequence of a sense strand is represented by SEQ. ID No. 1, whereas the sequence of the antisense strand is represented by SEQ. ID No. 2) or a scrambled oligo (negative control) (the sequence of a sense strand is represented by SEQ. ID No. 3, whereas the sequence of the antisense strand is represented by SEQ. ID No. 4) was introduced. The resultant preadipocytes were cultured in the aforementioned “basic medium+transferrin”. TPO in each of the culture supernatants was measured by ELISA quantitation using the TPO Quantikine ELISA kit (manufactured by R&D Systems). In Table 6, “unmeasurable” means that measurement values are equivalent to the value of the background. As is apparent from Table 6, TPO was secreted from preadipocytes using the scrambled oligo, whereas TPO was not secreted from preadipocytes in which transferrin receptor CD71 was knocked down by siRNA.

[10] = system: transferrin receptor CD71; assay: CD71 knock-down by siRNA: CD71 % (Example 11)
[11] = iron-bound transferrin 25 μg/mL in basic medium
[12] = iron-bound transferrin 50 μg/mL in basic medium
[13] = iron-bound transferrin 100 μg/mL in basic medium
[14] = iron-bound transferrin 200 μg/mL in basic medium
[15] = iron-bound transferrin 400 μg/mL in basic medium
[16] = Day 0 (48 hours after siRNA introduction)
[17] = Day 4 of culture in basic medium + transferrin
[18] = Day 2, basic medium+transferrin
[19] = Day 4, basic medium+transferrin

## OCCS [2-β-mercaptoethanol]
Mouse preadipocytes [1]
  cells expressing CD41: not observed

## CC(=O)N(O)CCCCCNC(=O)CCC(=O)N(O)CCCCCNC(=O)CCC(=O)N(O)CCCCCN [Desferal, deferoxamine mesylate]
Preadipocytes [2]; Desferal 0.005 mg/mL in basic medium + 200 μg/mL iron-bound transferrin
  CD41 (%): 36 ± 11.3%
Preadipocytes [2]; Desferal 0.05 mg/mL in basic medium + 200 μg/mL iron-bound transferrin
  CD41 (%): 35.5 ± 10.6%
Preadipocytes [2]; Desferal 0.5 mg/mL in basic medium + 200 μg/mL iron-bound transferrin
  CD41 (%): 14 ± 5.7%
Preadipocytes [2]; Desferal 5 mg/mL in basic medium + 200 μg/mL iron-bound transferrin
  CD41 (%): 10.5 ± 6.4%
Preadipocytes [2]; Desferal 50 mg/mL in basic medium + 200 μg/mL iron-bound transferrin
  CD41 (%): 5 ± 2.8%

## Apo-transferrin: non-iron-bound transferrin, manufactured by Athens Research and Technology
Preadipocytes [2]; apo-transferrin 200 μg/mL added to basic medium alone
  CD41 (%): 16.5 ± 4.95%
Preadipocytes [2]; apo-transferrin 400 μg/mL added to basic medium alone
  CD41 (%): 14.5 ± 3.54%

## Iron-bound transferrin: holo-transferrin formed by binding an apo-transferrin to an iron ion; manufactured by Sigma
Mouse preadipocytes [3]; c-MPL negative, CD71 negative preadipocytes
  ratio (%) of CD41-positive cells: 10.8%
Mouse preadipocytes [3]; c-MPL negative, CD71 positive preadipocytes
  ratio (%) of CD41-positive cells: 26.9%
Mouse preadipocytes [3]; c-MPL positive, CD71 positive preadipocytes
  ratio (%) of CD41-positive cells: 62.3%
Mouse preadipocytes [1]
  cells expressing CD41: observed
Human preadipocytes [4]; [11]
  CD41 (%): 15.5 ± 9.2%
Human preadipocytes [4]; [12]
  CD41 (%): 18 ± 9.9%
Human preadipocytes [4]; [13]
  CD41 (%): 17.5 ± 9.2%
Human preadipocytes [4]; [14]
  CD41 (%): 19 ± 8.5%
Human preadipocytes [4]; [15]
  CD41 (%): 11 ± 7.1%
Human preadipocytes [5]; [11]
  TPO: Below
Human preadipocytes [5]; iron-bound transferrin 50 μg/mL
  decrease of concentration of TPO produced compared to the case of 200 μg/mL: about 25%
Human preadipocytes [5]; [12]
  TPO: 7.5 ± 1.1 pg/mL
Human preadipocytes [5]; [13]
  TPO: 10.8 ± 3.5 pg/mL
Human preadipocytes [5]; [14]
  TPO: 10 ± 2.4 pg/mL
Human preadipocytes [5]; [15]
  TPO: Below

## TPO: thrombopoietin purchased from Stem Cell Technologies, 50 ng/mL in MKLI medium
[6]; Day 2 and Day 8 after initiation of culture
  platelet production: slightly produced
[6]; Day 8, 1.26% before culture, supernatant TPO 43.1±4.9 pg/mL, purchased TPO 50 ng/mL in MKLI medium
  ratio of CD41 positive cells: 5.56%

## insulin: insulin, 10 μg/mL added to basic medium
Mouse preadipocytes [1]
  cells expressing CD41: not observed

## siRNA-CD71: siRNA of transferrin receptor CD71; sense strand SEQ. ID No. 1, antisense strand SEQ. ID No. 2 (sense GAACUUGAAACUGCGUAAATT; antisense UUUACGCAGUUUCAAGUUCTT; chemistry not given here) [siRNA of transferrin receptor CD71; ID No. 2]
[7]; [16]
  CD71 %: 5.7 ± 0.2%
[7]; [17]
  CD71 %: 7.5 ± 0.7%
Human preadipocytes [8]; [16]
  CD41 (%): 0.1> %
Human preadipocytes [8]; [17]
  CD41 (%): 0.1> %
Preadipocytes [9]; [16]
  TPO: Unmeasurable
Preadipocytes [9]; [18]
  TPO: Unmeasurable
Preadipocytes [9]; [19]
  TPO: Unmeasurable
[10]; [16]
  CD71 %: 5.7 ± 0.2%
[10]; [18]
  CD71 %: 13.7 ± 0.6%
[10]; [19]
  CD71 %: 7.5 ± 0.7%
